Data taken from US8912184B1, “Therapeutic and diagnostic methods” (Alzheimer's Institute of America, Inc., priority 2010, dated 2014).
Where two headings read alike, the source gives them in different places.

How the values were obtained:
cancer cell lines = test: Standard Cytotoxicity Assay for other cancer cell types (TC50, CellTiter-Glo); format: cell-based
Experimental: (§1) Approximately 24 hours later, test compound was added from serial dilutions prepared in DMSO from DMSO stock solutions.

[1] = as above; format: cell-based; details: for CC50 at 3 day: read-out: Cmpd A 3 day TC50; for CC50 at 7 day: read-out: Cmpd A 7 day TC50
Experimental: as §1

[2] = human, MALME-3 cells (normal skin), MALME-3 cells (skin (normal))
[3] = human, hFLS-RA (primary synoviocytes)
[4] = keratinocytes (primary skin cells), keratinocytes (primary skin)

O=C(NCc1cccnc1)Nc1ccc(COc2ccccc2-c2ccccc2)cc1 [Exemplary Compound A, 1-{4-[(biphenyl-2-yloxy)methyl]phenyl}-3-(pyridin-3-ylmethyl)urea]
CC50 (cancer cell lines; Homo sapiens, Malme-3M, 72 h, MALME-3M cells (melanoma (lung metastasis)), 3 day, read-out: Cmpd A 3 day TC50): 2.5 nM | CC50 (cancer cell lines; Homo sapiens, NB-4, 72 h, NB-4 cells (myelogenous leukemia), 3 day, read-out: Cmpd A 3 day TC50): < 0.8 nM | CC50 (cancer cell lines; Homo sapiens, NCI-H69, 72 h, NCI-H69 (SCLC), 3 DAY, read-out: TC50 (the source's name)): 1 nM | CC50 (cancer cell lines; Homo sapiens, NCI-H69, 72 h, NCI-H69 cells (lung (small cell)), 3 day, read-out: Cmpd A 3 day TC50): 1 nM | CC50 (cancer cell lines; Homo sapiens, NCI-H82, 72 h, NCI-H82 (SCLC), 3 DAY, read-out: TC50 (the source's name)): 1.1 nM | CC50 (cancer cell lines; Homo sapiens, NCI-H226, 72 h, NCI-H226 cells (lung (NSCLC)), 3 day, read-out: Cmpd A 3 day TC50): 62 nM | CC50 (cancer cell lines; Homo sapiens, NCI-H460, 72 h, NCI-H460 (NSCLC), 3 DAY, read-out: TC50 (the source's name)): 15.4 nM | CC50 (cancer cell lines; Homo sapiens, NCI-H460, 72 h, NCI-H460 cells (lung (NSCLC)), 3 day, n = 9, read-out: Cmpd A 3 day TC50): 26 nM | CC50 (cancer cell lines; Homo sapiens, NCI-H460, 168 h, NCI-H460 cells (lung (NSCLC)), 7 day, n = 8, read-out: Cmpd A 7 day TC50): 17 nM | CC50 (cancer cell lines; Homo sapiens, NCI-H522, 72 h, NCI-H522 (NSCLC), 3 DAY, read-out: TC50 (the source's name)): 1 nM | CC50 (cancer cell lines; Homo sapiens, NCI-H522, 168 h, NCI-H522 (NSCLC), 7 DAY, read-out: TC50 (the source's name)): 0.4 nM | CC50 (cancer cell lines; Homo sapiens, NCI-H522, 168 h, NCI-H522 cells (lung (NSCLC)), 7 day, read-out: Cmpd A 7 day TC50): 0.4 nM | CC50 (cancer cell lines; Homo sapiens, NCI-H929, 72 h, NCI-H929 (myeloma), 3 DAY, read-out: TC50 (the source's name)): 2.5 nM | CC50 (cancer cell lines; Homo sapiens, NCI-H1299, 72 h, NCI-H1299 cells (lung (NSCLC)), 3 day, read-out: Cmpd A 3 day TC50): 4 nM | CC50 (cancer cell lines; Homo sapiens, NCI-H1650, 72 h, NCI-H1650 (NSCLC), 3 DAY, read-out: TC50 (the source's name)): 2.5 nM | CC50 (cancer cell lines; Homo sapiens, NCI-H1650, 72 h, NCI-H1650 cells (lung (NSCLC)), 3 day, read-out: Cmpd A 3 day TC50): 1.5 nM | CC50 (cancer cell lines; Homo sapiens, NCI-N87, 72 h, NCI-N87 (gastric), 3 DAY, read-out: TC50 (the source's name)): 0.3 nM | CC50 (cancer cell lines; Homo sapiens, NCI-N87, 72 h, NCI-N87 cells (gastric), 3 day, read-out: Cmpd A 3 day TC50): 0.3 nM | CC50 (cancer cell lines; Homo sapiens, NCI-N87, 168 h, NCI-N87 (gastric), 7 DAY, read-out: TC50 (the source's name)): 0.2 nM | CC50 (cancer cell lines; Homo sapiens, NCI-N87, 168 h, NCI-N87 cells (gastric), 7 day, read-out: Cmpd A 7 day TC50): 0.2 nM | CC50 (cancer cell lines; Homo sapiens, NOMO-1, 72 h, NOMO-1 cells (myelogenous leukemia), 3 day, read-out: Cmpd A 3 day TC50): < 0.8 nM | CC50 (cancer cell lines; Homo sapiens, OCI-LY19, 72 h, OCI-LY-19 cells (lymphoma), 3 day, read-out: Cmpd A 3 day TC50): 1.1 nM | CC50 (cancer cell lines; Homo sapiens, OCI-LY19, 72 h, OCI-Ly19 (lymphoma), 3 DAY, read-out: TC50 (the source's name)): 1.2 nM | CC50 (cancer cell lines; Homo sapiens, OPM-2, 72 h, OPM-2 (myeloma), 3 DAY, read-out: TC50 (the source's name)): 1.5 nM | CC50 (cancer cell lines; Homo sapiens, OVCAR-3, 72 h, OVCAR3 (ovarian), 3 DAY, read-out: TC50 (the source's name)): 1.1 nM | CC50 (cancer cell lines; Homo sapiens, OVCAR-3, 72 h, OVCAR-3 cells (ovary), 3 day, read-out: Cmpd A 3 day TC50): 1.1 nM | CC50 (cancer cell lines; Homo sapiens, OVCAR-3, 168 h, OVCAR3 (ovarian), 7 DAY, read-out: TC50 (the source's name)): 0.4 nM | CC50 (cancer cell lines; Homo sapiens, OVCAR-3, 168 h, OVCAR-3 cells (ovary), 7 day, read-out: Cmpd A 7 day TC50): 0.4 nM | CC50 (cancer cell lines; Homo sapiens, OVCAR-4, 72 h, OVCAR-4 cells (ovary), 3 day, read-out: Cmpd A 3 day TC50): 2.8 nM | CC50 (cancer cell lines; Homo sapiens, OVCAR-5, 72 h, OVCAR-5 cells (ovary), 3 day, read-out: Cmpd A 3 day TC50): 1.5 nM | CC50 (cancer cell lines; Homo sapiens, OVCAR-8, 72 h, OVCAR-8 cells (ovary), 3 day, read-out: Cmpd A 3 day TC50): 0.5 nM | CC50 (cancer cell lines; Homo sapiens, PC-3, 72 h, PC-3 cells (prostate), 3 day, read-out: Cmpd A 3 day TC50): < 1.5 nM | CC50 (cancer cell lines; Homo sapiens, PFSK-1, 72 h, PFSK-1 cells (brain; malignant neuroectodermal tumor), 3 day, read-out: Cmpd A 3 day TC50): < 0.8 nM | CC50 (cancer cell lines; Homo sapiens, RPMI-8226, 72 h, RPMI-8226 cells (myeloma), 3 day, read-out: Cmpd A 3 day TC50): 6 nM | CC50 (cancer cell lines; Homo sapiens, Ramos, 72 h, Ramos cells (lymphoma), 3 day, read-out: Cmpd A 3 day TC50): 1.8 nM | CC50 (cancer cell lines; Homo sapiens, SF-295, 72 h, SF-295 (glioma), 3 DAY, read-out: TC50 (the source's name)): 1.5 nM | CC50 (cancer cell lines; Homo sapiens, SK-BR-3, 72 h, SK-BR-3 cells (breast), 3 day, read-out: Cmpd A 3 day TC50): 6.8 nM | CC50 (cancer cell lines; Homo sapiens, SK-OV-3, 72 h, SK-OV-3 cells (ovary), 3 day, read-out: Cmpd A 3 day TC50): 1.2 nM | CC50 (cancer cell lines; Homo sapiens, SKM-1, 72 h, SKM-1 cells (myelogenous leukemia), 3 day, read-out: Cmpd A 3 day TC50): < 0.8 nM | CC50 (cancer cell lines; Homo sapiens, SR, 72 h, SR cells (lymphoma), 3 day, read-out: Cmpd A 3 day TC50): 21 nM | CC50 (cancer cell lines; Homo sapiens, SU-DHL10, 72 h, SU-DHL-10 cells (lymphoma), 3 day, read-out: Cmpd A 3 day TC50): 0.75 nM | CC50 (cancer cell lines; Homo sapiens, SU-DHL-1, 72 h, SU-DHL-1 cells (lymphoma), 3 day, read-out: Cmpd A 3 day TC50): 37 nM | CC50 (cancer cell lines; Homo sapiens, SU-DHL-4, 72 h, SU-DHL-4 (lymphoma), 3 DAY, read-out: TC50 (the source's name)): 1.5 nM | CC50 (cancer cell lines; Homo sapiens, SU-DHL-4, 72 h, SU-DHL-4 cells (lymphoma), 3 day, read-out: Cmpd A 3 day TC50): 0.84 nM | CC50 (cancer cell lines; Homo sapiens, SU-DHL-5, 72 h, SU-DHL-5 (lymphoma), 3 DAY, read-out: TC50 (the source's name)): 0.9 nM | CC50 (cancer cell lines; Homo sapiens, SU-DHL-5, 72 h, SU-DHL-5 cells (lymphoma), 3 day, read-out: Cmpd A 3 day TC50): 0.57 nM | CC50 (cancer cell lines; Homo sapiens, SU-DHL-8, 72 h, SU-DHL-8 cells (lymphoma), 3 day, read-out: Cmpd A 3 day TC50): 0.59 nM | CC50 (cancer cell lines; Homo sapiens, SU.86.86, 72 h, SU.86.86 cells (pancreas), 3 day, read-out: Cmpd A 3 day TC50): 4.3 nM | CC50 (cancer cell lines; Homo sapiens, SW48, 72 h, SW-48 cells (colon), 3 day, read-out: Cmpd A 3 day TC50): 2.3 nM | CC50 (cancer cell lines; Homo sapiens, SW480, 72 h, SW 480 cells (colon), 3 day, read-out: Cmpd A 3 day TC50): 4 nM | CC50 (cancer cell lines; Homo sapiens, T47D, 72 h, T47D cells (breast), 3 day, read-out: Cmpd A 3 day TC50): 0.8 nM | CC50 (cancer cell lines; Homo sapiens, T-24, 72 h, T24 cells (bladder), 3 day, read-out: Cmpd A 3 day TC50): 1 nM | CC50 (cancer cell lines; Homo sapiens, THP-1, 72 h, THP-1 cells (lymphocytic leukemia), 3 day, read-out: Cmpd A 3 day TC50): < 0.8 nM | CC50 (cancer cell lines; Homo sapiens, U2OS, 72 h, U-2 OS cells (osteosarcoma), 3 day, read-out: Cmpd A 3 day TC50): 2.2 nM | CC50 (cancer cell lines; Homo sapiens, U-87 MG, 72 h, U-87MG (glioma), 3 DAY, read-out: TC50 (the source's name)): 23 nM | CC50 (cancer cell lines; Homo sapiens, U-87 MG, 72 h, U-87 MG cells (brain; glioblastoma/astrocytoma), 3 day, read-out: Cmpd A 3 day TC50): 15 nM | CC50 (cancer cell lines; Homo sapiens, U-266, 72 h, U266 cells (myeloma), 3 day, read-out: Cmpd A 3 day TC50): 18 nM | CC50 (cancer cell lines; Homo sapiens, U-266, 168 h, U266 cells (myeloma), 7 day, read-out: Cmpd A 7 day TC50): 1.5 nM | CC50 (cancer cell lines; Homo sapiens, U-937, 72 h, U-937 cells (lymphoma), 3 day, read-out: Cmpd A 3 day TC50): 1 nM | CC50 (cancer cell lines; Homo sapiens, UACC-257, 72 h, UACC-257 cells (melanoma), 3 day, read-out: Cmpd A 3 day TC50): 27 nM | CC50 (cancer cell lines; Homo sapiens, VCaP, 72 h, VCaP cells (prostate), 3 day, n = 2, read-out: Cmpd A 3 day TC50): > 10000 nM | CC50 (cancer cell lines; Homo sapiens, VCaP, 168 h, VCaP cells (prostate), 7 day, read-out: Cmpd A 7 day TC50): 14 nM | CC50 (cancer cell lines; Hs766T, 72 h, Hs 766T cells (pancreas), 3 day, read-out: Cmpd A 3 day TC50): 4.7 nM | CC50 (cancer cell lines; L-82, 72 h, L-82 cells (lymphoma), 3 day, read-out: Cmpd A 3 day TC50): 32 nM | CC50 (cancer cell lines; MLE12, 72 h, MLE-12 cells (mouse; lung), 3 day, read-out: Cmpd A 3 day TC50): 4 nM | CC50 (cancer cell lines; MM.1R, 72 h, MM.1R cells (myeloma), 3 day, read-out: Cmpd A 3 day TC50): 1.5 nM | CC50 (cancer cell lines; Mus musculus, B16-F10, 72 h, B16-F10 cells (mouse; melanoma), 3 day, read-out: Cmpd A 3 day TC50): 80 nM | CC50 (cancer cell lines; Mus musculus, Hepa1-6, 72 h, Hepa1-6 cells (mouse; hepatoma), 3 day, read-out: Cmpd A 3 day TC50): 2.5 nM | CC50 (cancer cell lines; Mus musculus, RAW264.7, 72 h, RAW264.7 cells (mouse; leukemia), 3 day, read-out: Cmpd A 3 day TC50): 14 nM | CC50 (cancer cell lines; OVCAR-3 cells (ovary), 3 day, read-out: Cmpd A 3 day TC50): < 0.8 nM | CC50 (cancer cell lines; OVCAR-8 cells (ovary), 3 day, read-out: Cmpd A 3 day TC50): < 0.8 nM | CC50 (cancer cell lines; SR-786, 72 h, SR-786 cells (lymphoma), 3 day, read-out: Cmpd A 3 day TC50): 1.1 nM | CC50 (cancer cell lines; SU-DHL-10 cells (lymphoma), 3 day, read-out: Cmpd A 3 day TC50): 0.83 nM | CC50 (cancer cell lines; SUP-M2, 72 h, SUP-M2 cells (lymphoma), 3 day, read-out: Cmpd A 3 day TC50): 2.2 nM | CC50 (cancer cell lines; T47D cells (breast), 3 day, read-out: Cmpd A 3 day TC50): < 1.5 nM | CC50 (cancer cell lines; U266 cells (myeloma), 3 day, read-out: Cmpd A 3 day TC50): 10.3 nM | CC50 (cancer cell lines; U-937 cells (lymphoma), 3 day, read-out: Cmpd A 3 day TC50): 0.89 nM | CC50 (cancer cell lines; UWB1289, 72 h, UWB1.289 cells (ovary), 3 day, read-out: Cmpd A 3 day TC50): 2.4 nM | CC50 at 3 day ([1]; SAEC (primary lung cells), SAEC (primary lung), value printed with (?)): 15000 nM | CC50 at 3 day [1, 2]: > 5000 nM | CC50 at 7 day [1, 2]: 0.9 nM | CC50 at 3 day [1, 3]: > 25000 nM | CC50 at 7 day [1, 3]: > 25000 nM | CC50 at 3 day [1, 4]: 2.9 nM | CC50 at 7 day [1, 4]: < 0.4 nM | CC50 at 3 day ([1]; mouse, NIH-3T3 cells (fibroblast), NIH-3T3 cells (mouse; fibroblast)): 0.45 nM
